Patent USRE31731E, “Herbicidal 4-trifluoromethyl-4-nitrodiphenyl ethers” (priority 1978, dated 1984)

Legend:
Assay type in all cases: in vivo
[1] = tested on: Monocots; test: Herbicidal activity, preemergence, monocot weeds (Table II); settings: pre-emergence, 336 h, about 2 weeks, read-out: % control (percent of plants killed); for pest or weed control at 4483.4 g/ha: 4 lb./A.; for pest or weed control at 11208.5 g/ha: 10 lb./A.; for pest or weed control at 2241.7 g/ha: 2 lb./A.
Protocol: (§1) Using the procedure described below, diphenyl ethers were evaluated for control of the following weeds: […]
(§2) barnyardgrass (Echinochloa crusgalli) crabgrass (Digitaria spp.) nutsedge (Cyperus esculentus)
(§3) At 2 and 4 pounds per acre:
(§4) **Bermudagrass (Cynodon dactylon)
(§5) *downy brome (Bromus tectorum) foxtail (Setaria faberii)
(§6) Johnsongrass (Sorghum halepense) […]
(§7) quackgrass (Agropyron repens)
(§8) *ryegrass (Lolium perenne)
(§9) *yellow millet (Panicum miliaceum)
(§10) The following test procedure is employed. Seeds of selected crops and weeds are planted in soil in flats. For preemergence tests, the flats are treated with the test compound immediately after the planting. For postemergence tests, the seeds are allowed to germinate, and after 2 weeks the flats are treated with the test compound. The compound to be evaluated is dissolved in acetone, diluted with water, and sprayed over the flats using a carrier volume equivalent to 50 gallons per acre at the rate of application (pounds per acre, lb/A.) specified in the tables. About 2 weeks after the application of the test compound, the state of growth of the plants is observed and the phytotoxic effect of the compound is evaluated. Table II gives the average percent control achieved by the test compounds in terms of the percent of the plants which are killed by the compounds.

[2] = tested on: Dicots; test: Herbicidal activity, preemergence, dicot weeds (Table II); settings: pre-emergence, 336 h, about 2 weeks, read-out: % control (percent of plants killed); for pest or weed control at 4483.4 g/ha: 4 lb./A.; for pest or weed control at 11208.5 g/ha: 10 lb./A.; for pest or weed control at 2241.7 g/ha: 2 lb./A.
Protocol: as §1
(§11) bindweed (Convolvulus arvensis) curly dock (Remex crispus) velvetleaf (Abutilon theophrasti) wild mustard (Brassica haber)
(§12) At 2 and 4 pounds per acre: […]
(§13) cocklebur (Xanthium pensylvanicum)
(§14) **coffeeweed (Sesbania macrocarpa)
(§15) *curly dock (Rumex crispus)
(§16) *lambsquarters (Chenopodium album) morningglory (Ipomoea purpurea)
(§17) *pigweed (Amaranthus retroflexus)
(§18) **ragweed (Ambrosia artemisiifolia)
(§19) *smartweed (Polygonum pensylvanicum)
(§20) **tomato (Lycopersicon esculentum)
(§21) *wild carrot (Daucus carota)
(§22) *wild mustard (Brassica haber)
as §10

[3] = tested on: Monocots; test: Herbicidal activity, postemergence, monocot weeds (Table II); settings: post-emergence, 336 h, about 2 weeks, read-out: % control (percent of plants killed); for pest or weed control at 4483.4 g/ha: 4 lb./A.; for pest or weed control at 11208.5 g/ha: 10 lb./A.; for pest or weed control at 2241.7 g/ha: 2 lb./A.
Protocol: as §1, §2, §3, §4, §5, §6, §7, §8, §9, §10

[4] = tested on: Dicots; test: Herbicidal activity, postemergence, dicot weeds (Table II); settings: post-emergence, 336 h, about 2 weeks, read-out: % control (percent of plants killed); for pest or weed control at 4483.4 g/ha: 4 lb./A.; for pest or weed control at 11208.5 g/ha: 10 lb./A.; for pest or weed control at 2241.7 g/ha: 2 lb./A.
Protocol: as §1, §11, §12, §13, §14, §15, §16, §17, §18, §19, §20, §21, §22, §10

SMILES	pest or weed control at 4483.4 g/ha [1] [%]	pest or weed control at 11208.5 g/ha [1] [%]	pest or weed control at 4483.4 g/ha [2] [%]	pest or weed control at 11208.5 g/ha [2] [%]	pest or weed control at 4483.4 g/ha [3] [%]	pest or weed control at 11208.5 g/ha [3] [%]	pest or weed control at 4483.4 g/ha [4] [%]	pest or weed control at 11208.5 g/ha [4] [%]	pest or weed control at 2241.7 g/ha [1] [%]	pest or weed control at 2241.7 g/ha [2] [%]	pest or weed control at 2241.7 g/ha [3] [%]	pest or weed control at 2241.7 g/ha [4] [%]
CCOc1cc(Oc2ccc(C(F)(F)F)cc2)ccc1[N+](=O)[O-] [Example 1]	76	42	45	35	57	82	58	100				
COc1cc(Oc2ccc(C(F)(F)F)cc2Cl)ccc1[N+](=O)[O-] [Example 2]	97	97	80	100	99	100	100	100				
CCCOc1cc(Oc2ccc(C(F)(F)F)cc2Cl)ccc1[N+](=O)[O-] [Example 5]	84	97	78	100	99	100	100	100				
CCCCOc1cc(Oc2ccc(C(F)(F)F)cc2Cl)ccc1[N+](=O)[O-] [Example 6]	77	65	55	70	91	97	94	100				
CCOc1cc(Oc2ccc(C(F)(F)F)cc2C#N)ccc1[N+](=O)[O-] [Example 7, 2-Cyano-α,α,α-trifluoro-p-tolyl-3-ethoxy-4-nitrophenyl ether]	65	61	57	60	75	100	77	100	65	54	82	80
CCCOc1cc(Oc2ccc(C(F)(F)F)cc2C#N)ccc1[N+](=O)[O-] [Example 8]	61	81	57	82	48	85	80	100	52	46	35	66
Cc1cc(Oc2ccc(C(F)(F)F)cc2C#N)ccc1[N+](=O)[O-] [Example 9]	90	99	66	92	97	100	81	100	81	67	82	75
O=[N+]([O-])c1ccc(Oc2ccc(C(F)(F)F)cc2Cl)cc1O [Example 10, 2-Chloro-α,α,α-trifluoro-p-tolyl-3-hydroxy-4-nitrophenyl ether]	70		100		67		98		66	70	17	85
C=CCOc1cc(Oc2ccc(C(F)(F)F)cc2Cl)ccc1[N+](=O)[O-] [Example 12]	86		96		77		100		72	93	99	100
